Measurements from ChEMBL document CHEMBL5108051, “Improving the Antimicrobial Performance of Amphiphilic Cationic Antimicrobial Peptides Using Glutamic Acid Full-Scan and Positive Charge Compensation Strategies” (J Med Chem, 2022).
Calls of active or inactive are those of the source. The calls are words filed in the database; no cut-off is given here. Bridge positions count the residues as written; N and C are the ends. Square brackets hold non-standard residues; d marks the D form. Peptide text beside a SMILES is read from it. * marks the point of attachment. X1 = CC[C@H](C)CCCCC(=O)*; Dab = NCC[C@H](N)C(=O)O

What was measured:
Staphylococcus aureus [1] = experiment: Antimicrobial activity against Staphylococcus aureus ATCC 25923 assessed as fold increase in MIC in presence of KCl; format: functional
Staphylococcus aureus [2] = experiment: Antimicrobial activity against Staphylococcus aureus ATCC 25923 assessed as increase fold in increase MIC in presence of FeCl3; format: functional
[3] = Acute toxicity in BALB/c mouse lung assessed as congestion at 20 to 80 mg/kg, ip administered as single dose measured for 7 days by H and E staining method; format: organism-based; conditions: in vivo, 168 h, dose 20-80 mg/kg, time 7 day
[4] = Acute toxicity in BALB/c mouse lung assessed as distortion of alveolar morphology at 20 to 80 mg/kg, ip administered as single dose measured for 7 days by H and E staining method; format: organism-based; conditions: in vivo, 168 h, dose 20-80 mg/kg, time 7 day
[5] = Acute toxicity in BALB/c mouse lung assessed as increase in inter-alveolar space at 20 to 80 mg/kg, ip administered as single dose measured for 7 days by H and E staining method; format: organism-based; conditions: in vivo, 168 h, dose 20-80 mg/kg, time 7 day
Escherichia coli [6] = experiment: Antibiofilm activity against Escherichia coli ATCC 25922 assessed as inhibition of biofilm formation at 4 times MIC measured after 24 hrs by crystal violet staining based assay; format: functional, organism-based
Staphylococcus aureus [7] = experiment: Antimicrobial activity against Staphylococcus aureus ATCC 25923 in presence of NaCl; format: functional, organism-based
Staphylococcus aureus [8] = experiment: Antimicrobial activity against Staphylococcus aureus ATCC 25923 in presence of KCl; format: functional, organism-based
Staphylococcus aureus [9] = experiment: Antimicrobial activity against Staphylococcus aureus ATCC 25923 in presence of MgCl2; format: functional, organism-based
Staphylococcus aureus [10] = experiment: Antimicrobial activity against Staphylococcus aureus ATCC 25923 in presence of FeCl3; format: functional, organism-based
Escherichia coli [11] = experiment: Antimicrobial activity against Escherichia coli ATCC 25922 in presence of MgCl2; format: functional, organism-based
Escherichia coli [12] = experiment: Bactericidal activity against Escherichia coli ATCC 25922 at 2 times MIC measured after 30 mins by time-killing kinetics assay; format: functional; conditions: 0.5 h
Escherichia coli [13] = experiment: Bactericidal activity against Escherichia coli ATCC 25922 at 1 times MIC measured after 2 hrs by time-killing kinetics assay; format: functional
Escherichia coli [14] = experiment: Antibiofilm activity against Escherichia coli ATCC 25922 assessed as inhibition of biofilm formation at 2 times MIC measured after 24 hrs by crystal violet staining based assay; format: functional, organism-based
Staphylococcus aureus [15] = experiment: Disruption of membrane integrity in Staphylococcus aureus ATCC 25923 assessed as increase in nucleic acid leakage by measuring PI-uptake level by microplate reader assay; format: functional, organism-based
Escherichia coli [16] = experiment: Antibacterial activity against Escherichia coli ATCC 25922 assessed as inhibition of gentamicin resistance development measured after 15 passages in presence of gentamicin by resistance development assay; format: functional, organism-based
Escherichia coli [17] = experiment: Antibacterial activity against Escherichia coli ATCC 25922 assessed as inhibition of rifampin resistance development measured after 15 passages in presence of rifampin by resistance development assay; format: functional, organism-based
Staphylococcus aureus [18] = experiment: Antibacterial activity against Staphylococcus aureus ATCC 25923 assessed as inhibition of gentamicin resistance development measured after 15 passages in presence of gentamicin by resistance development assay; format: functional, organism-based
Staphylococcus aureus [19] = experiment: Antibacterial activity against Staphylococcus aureus ATCC 25923 assessed as inhibition of rifampin resistance development measured after 15 passages in presence of rifampin by resistance development assay; format: functional, organism-based
[20] = Acute toxicity in BALB/c mouse assessed as pathological changes in lung at 20 to 80 mg/kg, ip administered as single dose measured for 7 days by H and E staining method; format: organism-based; conditions: in vivo, 168 h, dose 20-80 mg/kg, time 7 day
[21] = Acute toxicity in BALB/c mouse assessed as pathological changes in kidney at 20 to 80 mg/kg, ip administered as single dose measured for 7 days by H and E staining method; format: organism-based; conditions: in vivo, 168 h, dose 20-80 mg/kg, time 7 day
Staphylococcus aureus [22] = experiment: In vivo antimicrobial activity against Staphylococcus aureus ATCC 25923 infected in BALB/C mouse pulmonary infection model administered ip; format: functional, organism-based; conditions: dose 5-10 mg/kg, DDE = dose-dependent effect
Staphylococcus aureus [23] = experiment: Antibacterial activity against Staphylococcus aureus ATCC 25923 infected in BALB/C mouse pulmonary infection model assessed as increase in bacterial killing in lung at 10 mg/kg, ip after 24 hrs by H and E staining method; format: functional, organism-based
Staphylococcus aureus [24] = experiment: Antibacterial activity against Staphylococcus aureus ATCC 25923 infected in BALB/C mouse pulmonary infection model assessed as increase in alveolar aggregation in lung at 10 mg/kg, ip after 24 hrs by H and E staining method; format: functional, organism-based
[25] = Acute toxicity in BALB/c mouse spleen assessed as edema at 20 to 80 mg/kg, ip administered as single dose measured for 7 days by H and E staining method; format: organism-based; conditions: in vivo, 168 h, dose 20-80 mg/kg, time 7 day
Escherichia coli [26] = experiment: Antimicrobial activity against Escherichia coli ATCC 25922 assessed as reduction in survival rate in presence of >= 0.02 microg/ml of trypsin measured after 6 hrs; format: functional, organism-based
Escherichia coli [27] = experiment: Bactericidal activity against Escherichia coli ATCC 25922 at 0.5 times MIC measured after 1 hr by time-killing kinetics assay; format: functional
[28] = Acute toxicity in BALB/c mouse assessed as mortality at 20 mg/kg, ip administered as single dose measured for 7 days; format: organism-based; conditions: in vivo, 168 h, time 7 day
[29] = Acute toxicity in BALB/c mouse assessed as mortality at 40 mg/kg, ip measured within 10 mins; format: organism-based; conditions: in vivo
[30] = Acute toxicity in BALB/c mouse assessed as ruffled hairs at 10 to 20 mg/kg, ip administered as single dose measured for 7 days; format: organism-based; conditions: in vivo, 168 h, dose 10-20 mg/kg, time 7 day
[31] = Acute toxicity in BALB/c mouse assessed as abdominal twitching at 10 to 20 mg/kg, ip administered as single dose measured for 7 days; format: organism-based; conditions: in vivo, 168 h, dose 10-20 mg/kg, time 7 day
[32] = Acute toxicity in BALB/c mouse assessed as pathological changes in heart at 10 to 40 mg/kg, ip administered as single dose measured for 7 days by H and E staining method; format: organism-based; conditions: in vivo, 168 h, dose 10-40 mg/kg, time 7 day
[33] = Acute toxicity in BALB/c mouse assessed as pathological changes in liver at 10 to 40 mg/kg, ip administered as single dose measured for 7 days by H and E staining method; format: organism-based; conditions: in vivo, 168 h, dose 10-40 mg/kg, time 7 day
[34] = Acute toxicity in BALB/c mouse spleen assessed as edema at 10 to 40 mg/kg, ip administered as single dose measured for 7 days by H and E staining method; format: organism-based; conditions: in vivo, 168 h, dose 10-40 mg/kg, time 7 day
[35] = Acute toxicity in BALB/c mouse spleen assessed as inflammatory cell infiltration at 10 to 40 mg/kg, ip administered as single dose measured for 7 days by H and E staining method; format: organism-based; conditions: in vivo, 168 h, dose 10-40 mg/kg, time 7 day
[36] = Acute toxicity in BALB/c mouse lung assessed as constricted pulmonary alveoli at 10 to 40 mg/kg, ip administered as single dose measured for 7 days by H and E staining method; format: organism-based; conditions: in vivo, 168 h, dose 10-40 mg/kg, time 7 day
[37] = Acute toxicity in BALB/c mouse kidney assessed as edema at 10 to 40 mg/kg, ip administered as single dose measured for 7 days by H and E staining method; format: organism-based; conditions: in vivo, 168 h, dose 10-40 mg/kg, time 7 day
Escherichia coli [38] = experiment: Antimicrobial activity against Escherichia coli ATCC 25922 assessed as reduction in survival rate in presence of 0.02 to 2000 microg/ml of chymotrypsin measured after 6 hrs; format: functional, organism-based

Which “fold change (FC)” value (Staphylococcus aureus [1]) does the source give for `CC[C@H](C)[C@H](NC(=O)[C@@H]1CCCN1C(=O)[C@H](CC(C)C)NC(=O)[C@@H](N)Cc1ccccc1)C(=O)N[C@H](C(=O)N[C@@H](C)C(=O)N[C@@H](CCCCN)C(=O)N[C@@H](CC(C)C)C(=O)N[C@@H](CC(C)C)C(=O)N[C@@H](CO)C(=O)NCC(=O)N[C@@H](CC(C)C)C(=O)N[C@@H](CC(C)C)C(N)=O)C(C)C` (H-FLPIVAKLLSGLL-NH2) here?
Its value is 2.

What about the “fold change (FC)” value (Staphylococcus aureus [2]) of the same compound?
The value was 2.

And the Activity [3]?
Its Activity is “Toxic”.

And the Activity [4]?
Its Activity is “Toxic”.

What about the Activity [5] of the same compound?
The Activity was “Toxic”.

And the Activity (Escherichia coli [6])?
Its Activity is “Active”.

Which Activity (Staphylococcus aureus [7]) does the source give for `CC(C)C[C@H](NC(=O)[C@H](CC(C)C)NC(=O)[C@H](CCC(=O)O)NC(=O)[C@H](CCCCN)NC(=O)[C@H](CC(C)C)NC(=O)[C@H](CC(C)C)NC(=O)[C@H](CCCCN)NC(=O)[C@H](C)NC(=O)[C@@H](NC(=O)[C@H](CCCCN)NC(=O)[C@@H]1CCCN1C(=O)[C@H](CC(C)C)NC(=O)[C@@H](N)Cc1ccccc1)C(C)C)C(N)=O` (H-FLPKVAKLLKELL-NH2) here?
The Activity was “Active”.

And the Activity (Staphylococcus aureus [8])?
The Activity was “Active”.

And the Activity (Staphylococcus aureus [9])?
Its Activity is “Active”.

And the Activity (Staphylococcus aureus [10])?
The Activity was “Active”.

What about the Activity (Escherichia coli [11]) of the same compound?
The Activity was “Active”.

And the Activity (Escherichia coli [12])?
The Activity was 100%.

What about the Activity (Escherichia coli [13]) of the same compound?
The Activity was 100%.

And the Activity (Escherichia coli [14])?
Its Activity is “Active”.

And the Activity (Staphylococcus aureus [15])?
Its Activity is “Active”.

What about the Activity (Escherichia coli [16]) of the same compound?
The Activity was “Active”.

What about the Activity (Escherichia coli [17]) of the same compound?
Its Activity is “Active”.

What about the Activity (Staphylococcus aureus [18]) of the same compound?
The Activity was “Active”.

What about the Activity (Staphylococcus aureus [19]) of the same compound?
Its Activity is “Active”.

What about the Activity [20] of the same compound?
Its Activity is “Non-Toxic”.

What about the Activity [21] of the same compound?
Its Activity is “Non-Toxic”.

What about the Activity (Staphylococcus aureus [22]) of the same compound?
Its Activity is “Dde”.

What about the Activity (Staphylococcus aureus [23]) of the same compound?
The Activity was “Active”.

And the Activity (Staphylococcus aureus [24])?
The Activity was “Active”.

And the Activity [25]?
Its Activity is “Toxic”.

With `CC[C@H](C)CCCCC(=O)N[C@@H](CCN)C(=O)N[C@H](C(=O)N[C@@H](CCN)C(=O)N[C@H]1CCNC(=O)[C@H]([C@@H](C)O)NC(=O)[C@H](CCN)NC(=O)[C@H](CCN)NC(=O)[C@H](CC(C)C)NC(=O)[C@@H](Cc2ccccc2)NC(=O)[C@H](CCN)NC1=O)[C@@H](C)O` (X1-[Dab]T[Dab][Dab][Dab][dF]L[Dab][Dab]T; lactam 4-C) as the compound, how does the Activity (Escherichia coli [26]) read?
Its Activity is “Active”.

What about the Activity (Escherichia coli [27]) of the same compound?
Its Activity is 100%.

And the Activity [28]?
The Activity was “Toxic”.

What about the Activity [29] of the same compound?
The Activity was “Toxic”.

What about the Activity [30] of the same compound?
The Activity was “Toxic”.

What about the Activity [31] of the same compound?
Its Activity is “Toxic”.

What about the Activity [32] of the same compound?
Its Activity is “Non-Toxic”.

What about the Activity [33] of the same compound?
The Activity was “Non-Toxic”.

What about the Activity [34] of the same compound?
The Activity was “Non-Toxic”.

What about the Activity [35] of the same compound?
Its Activity is “Non-Toxic”.

What about the Activity [36] of the same compound?
The Activity was “Non-Toxic”.

And the Activity [37]?
The Activity was “Non-Toxic”.

What about the Activity (Escherichia coli [38]) of the same compound?
The Activity was “Active”.
